In patent US20260116908A1, “TYLOSIN DERIVATIVE AND PREPARATION METHOD AND APPLICATION THEREOF” (Institute of Feed Research, Chinese Academy of Agricultural …, priority 2023, published 2026):
In brackets after ≈: the same amount, converted by molar mass.

Legend:
Assay type in all cases: cell-based
[1] = tested on: Streptococcus agalactiae CVCC3940; assay: MIC by broth microdilution, Streptococcus agalactiae
Method: (§1) The antibacterial activity of the tylosin derivative Ia and the antibacterial activity of the tylosin derivative Ib of the present invention were determined by using the broth microdilution method with tylosin as a positive control. A broth culture medium was added into a 96-well plate, a prepared compound solution was diluted in a trace two-fold decreasing concentration, and then was inoculated with an appropriate amount of bacterial solution. After incubation for 24 hours, the minimum inhibitory concentration of the compound was observed. The culture medium used in the experiment was CAMHB broth and CAMHB+5% defibrillated sheep blood broth. The preserved bacteria strain was inoculated into a serum plate medium and cultured at 37° C. for 16-18 hours. An appropriate amount of bacteria after the completion of subculture and saline were placed into a turbidimetric tube and calibrated to the McFarland standard with a McFarland turbidimeter. The bacterial suspension was diluted 10 times with saline to prepare test bacterial solutions of certain concentrations (5×10^5 to 5×10^6 cfu/mL) for later use. Tylosin and the compounds obtained in the examples were dissolved in methanol to the desired concentration of each compound (1.0 mg/mL), stored in sterilized brown vials, stoppered, and sealed for later use. […]

[2] = tested on: Streptococcus pneumoniae ATCC 49169; assay: MIC by broth microdilution, Streptococcus pneumoniae; settings: for MIC: Streptococcus pneumoniae, ATCC49169, final compound (after hydrolysis), 96-well two-fold dilution, 37° C., 24 hours; for antibacterial effect on Streptococcus pneumoniae before versus after hydrolysis: before vs after hydrolysis
Method: (§2) The antibacterial activity of the tylosin derivative Ia and the antibacterial activity of the tylosin derivative Ib of the present invention were determined by using the broth microdilution method with tylosin as a positive control. A broth culture medium was added into a 96-well plate, a prepared compound solution was diluted in a trace two-fold decreasing concentration, and then was inoculated with an appropriate amount of bacterial solution. After incubation for 24 hours, the minimum inhibitory concentration of the compound was observed. The culture medium used in the experiment was CAMHB broth and CAMHB+5% defibrillated sheep blood broth. The preserved bacteria strain was inoculated into a serum plate medium and cultured at 37° C. for 16-18 hours. An appropriate amount of bacteria after the completion of subculture and saline were placed into a turbidimetric tube and calibrated to the McFarland standard with a McFarland turbidimeter. The bacterial suspension was diluted 10 times with saline to prepare test bacterial solutions of certain concentrations (5×10^5 to 5×10^6 cfu/mL) for later use. Tylosin and the compounds obtained in the examples were dissolved in methanol to the desired concentration of each compound (1.0 mg/mL), stored in sterilized brown vials, stoppered, and sealed for later use. The working concentration range against Gram-negative bacteria was 0.25 μg/mL to 128 μg/mL; and the working concentration range against Gram-positive bacteria was […] to 50 μg/mL. The 96-well plate micro double dilution method was used. […] Finally, the prepared bacterial solution (of a concentration of 5×10^5 to 5×10^6 cfu/mL) was added into the first well to the eleventh well, and the twelfth well was not added with the bacterial solution to serve as a blank control. The 96-well plate was placed in a 37° C. incubator, cultured in a static state for 24 hours to observe the bacterial growth in each well. The solution in the well that inhibited bacterial growth was transparent, and the solution in the well that could not inhibit bacterial growth was turbid. The concentration corresponding to the well with a transparent solution was selected to be the minimum inhibitory concentration (MIC) of the sample.

[3] = tested on: Escherichia coli ATCC 8099; assay: MIC by broth microdilution, Escherichia coli; settings: for MIC: Escherichia coli, ATCC8099, final compound (after hydrolysis), 96-well two-fold dilution, 37° C., 24 hours; for antibacterial effect on Escherichia coli before versus after hydrolysis: before vs after hydrolysis
Method: as §2

[4] = tested on: Staphylococcus aureus ATCC 29737; assay: MIC by broth microdilution, Staphylococcus aureus
Method: as §1

| Compound | MIC ([1]; Streptococcus agalactiae, CVCC3940, after hydrolysis, 96-well two-fold dilution, 37° C., 24 hours) [µg/mL] | antibacterial activity against Streptococcus agalactiae before versus after hydrolysis ([1]; before vs after hydrolysis) | MIC [2] [µg/mL] | antibacterial effect on Streptococcus pneumoniae before versus after hydrolysis [2] | in vitro antibacterial activity against Streptococcus pneumoniae compared with tylosin [2] | MIC [3] [µg/mL] | antibacterial effect on Escherichia coli before versus after hydrolysis [3] | MIC ([4]; Staphylococcus aureus, ATCC29737, after hydrolysis, 96-well two-fold dilution, 37° C., 24 hours) [µg/mL] | antibacterial activity against Staphylococcus aureus before versus after hydrolysis ([4]; before vs after hydrolysis) | in vitro antibacterial activity against Escherichia coli compared with tylosin ([3]; compared with tylosin) |
| --- | --- | --- | --- | --- | --- | --- | --- | --- | --- | --- |
| CC[C@H]1OC(=O)C[C@@H](O)[C@H](C)[C@@H](O[C@@H]2O[C@H](C)[C@@H](O)[C@H](N(C)C)[C@H]2O)[C@@H](CCNCCCO)C[C@@H](C)C(=O)/C=C/C(C)=C/[C@@H]1CO[C@@H]1O[C@H](C)[C@@H](O)[C@@H](OC)[C@H]1OC [Ia, 20-(3-hydroxypropylamino)desmycosin] | 1.56 (≈ 1.88 µM) | stronger before the hydrolysis | 0.391 (≈ 0.47 µM) | comparable | higher in vitro antibacterial activity | 128 (≈ 154 µM) | comparable | 0.781 (≈ 0.94 µM) | stronger after the hydrolysis | – |
| CC[C@H]1OC(=O)C[C@@H](O)[C@H](C)[C@@H](O[C@@H]2O[C@H](C)[C@@H](O[C@H]3C[C@@](C)(O)[C@@H](O)[C@H](C)O3)[C@H](N(C)C)[C@H]2O)[C@@H](CC=O)C[C@@H](C)C(=O)/C=C/C(C)=C/[C@@H]1CO[C@@H]1O[C@H](C)[C@@H](O)[C@@H](OC)[C@H]1OC [Tylosin] | – | – | 0.781 (≈ 0.853 µM) | – | – | 128 (≈ 140 µM) | – | – | – | – |
| CC[C@H]1OC(=O)C[C@@H](O)[C@H](C)[C@@H](O[C@@H]2O[C@H](C)[C@@H](O)[C@H](N(C)C)[C@H]2O)[C@@H](CCN2CCC[C@@H]2CO)C[C@@H](C)C(=O)/C=C/C(C)=C/[C@@H]1CO[C@@H]1O[C@H](C)[C@@H](O)[C@@H](OC)[C@H]1OC [Ib, 20-((R)-2-hydroxymethyltetrahydropyrrolyl)desmycosin] | – | – | 0.098 (≈ 0.114 µM) | doubled after the hydrolysis | higher in vitro antibacterial activity | 64 (≈ 74.7 µM) | comparable | – | – | higher in vitro antibacterial activity |
